Values after ≈ are worked out from the molar mass of the structure shown. Where two headings read alike, the source gives them in different places.
Legend:
Experiment in all cases: In vitro antibacterial activity, agar dilution method (clinical isolates)
Type in all cases: cell-based
[1] = test system: Proteus mirabilis; settings: read-out: MIC90 Proteus mirabilis
Source text: (§1) Bacterial strains for test: All the bacterial strains are clinical isolates and purchased from public organizations. methicillin-sensitive staphylococcus aureus (MS SA), methicillin-resistant staphylococcus aureus (MRSA), methicillin-sensitive staphylococcus epidermidis (MSSE), methicillin-resistant staphylococcus epidermidis (MRSE), streptococcus pyogenes, penicillin-sensitive streptococcus pneumoniae (PSSP), penicillin-resistant streptococcus pneumoniae (PRSP), Escherichia coli, Citrobacter freundii, Enterobacter cloacae, Hemophilus influenza, Klebsiella pneumonia (producing ESBL), Morganella morganii, Proteus mirabilis, Serratia marcescens, and Pseudomonas aeruginosa.
(§2) Drugs to be tested: compounds of the invention prepared in the examples; the chemical names, structural formulae, preparation materials, and preparation methods are provided in the preparation examples of the compounds;
(§3) Meropenem (Meropenem for injection), Ertapenem (Ertapenem for injection), and Doripenem (Doripenem for injection) commercially available
(§4) Experimental method: the agar dilution method, by reference to Methodology of Pharmacological Experiment (XU Shuyun et al, published by the Peoples Medical Publishing House, 1st Edition, August, 1982; 3rd Edition, 5th printing, January 2002, p 1659-1660).

[2] = test system: penicillin-resistant streptococcus pneumoniae (PRSP); settings: clinically isolated strains, Gram-positive, read-out: MIC90 S. pneumoniae PRSP
Source text: as §1, §2, §3, §4

[3] = test system: Citrobacter freundii; settings: clinically isolated strains, Gram-negative
Source text: as §1, §2, §3, §4

[4] = test system: methicillin-resistant staphylococcus aureus (MRSA); settings: clinically isolated strains, Gram-positive, read-out: MIC90 S. aureus MRSA
Source text: as §1, §2, §3, §4

[5] = test system: Morganella morganii; settings: clinically isolated strains, Gram-negative
Source text: as §1, §2, §3, §4

[6] = test system: methicillin-sensitive staphylococcus epidermidis (MSSE); settings: clinically isolated strains, Gram-positive, agar dilution, read-out: MIC90 S. epidermidis MSSE
Source text: as §1, §2, §3, §4

[7] = test system: Enterobacter cloacae; settings: read-out: MIC90 Enterobacter cloacae
Source text: as §1, §2, §3, §4

[8] = test system: Klebsiella pneumonia (producing ESBL); settings: Klebsiella pneumoniae; clinically isolated strains (producing ESBL), Gram-negative, agar dilution; read-out: MIC90 Klebsiella pneumonia
Source text: as §1, §2, §3, §4

[9] = test system: penicillin-sensitive streptococcus pneumoniae (PSSP); settings: clinically isolated strains, Gram-positive, read-out: MIC90 S. pneumoniae PSSP
Source text: as §1, §2, §3, §4

[10] = test system: streptococcus pyogenes; settings: clinically isolated strains, Gram-positive, read-out: MIC90 S. pyogenes
Source text: as §1, §2, §3, §4

[11] = test system: methicillin-resistant staphylococcus epidermidis (MRSE); settings: clinically isolated strains, Gram-positive, read-out: MIC90 S. epidermidis MRSE
Source text: as §1, §2, §3, §4

[12] = test system: Escherichia coli; settings: clinically isolated strains, Gram-negative, read-out: MIC90 E. coli
Source text: as §1, §2, §3, §4

[13] = test system: methicillin-sensitive staphylococcus aureus (MSSA); settings: clinically isolated strains, Gram-positive, agar dilution, read-out: MIC90 S. aureus MSSA
Source text: as §1, §2, §3, §4

[14] = test system: Serratia marcescens; settings: read-out: MIC90 Serratia marcescens
Source text: as §1, §2, §3, §4

[15] = test system: Hemophilus influenza; settings: read-out: MIC90 Hemophilus influenza
Source text: as §1, §2, §3, §4

[16] = test system: Pseudomonas aeruginosa; settings: clinically isolated strains, Gram-negative
Source text: as §1, §2, §3, §4

[17] = clinically isolated strains, Gram-negative, agar dilution

| Compound | MIC90 [1] [µg/mL] | MIC90 [2] [µg/mL] | MIC90 [3] [µg/mL] | MIC90 [4] [µg/mL] | MIC90 [5] [µg/mL] | MIC90 [6] [µg/mL] | MIC90 [7] [µg/mL] | MIC90 [8] [µg/mL] | MIC90 [9] [µg/mL] | MIC90 [10] [µg/mL] | MIC90 [11] [µg/mL] | MIC90 [12] [µg/mL] | MIC90 [13] [µg/mL] | MIC90 [14, 17] [µg/mL] | MIC90 [15, 17] [µg/mL] | MIC90 [16] [µg/mL] | MIC90 [1, 17] [µg/mL] | MIC90 [7, 17] [µg/mL] | MIC90 [14] [µg/mL] | MIC90 [15] [µg/mL] |
| --- | --- | --- | --- | --- | --- | --- | --- | --- | --- | --- | --- | --- | --- | --- | --- | --- | --- | --- | --- | --- |
| CCN(CC)S(=O)(=O)N1CC(SC2=C(C(=O)O)N3C(=O)[C@H]([C@@H](C)O)[C@H]3[C@H]2C)C1 [Compound 7, (4R,5S,6S)-3-[1-(N,N-diethylaminosulfonyl)-azetidin-3-yl]thio-6-[(1R)-1-hydroxyethyl]-4-methyl-7-oxo-1-aza-bicyclo-[3.2.0]hept-2-ene-2-carboxylic acid] | 0.125 (≈ 0.288 µM) | 0.5 (≈ 1.15 µM) | 0.016 (≈ 0.0369 µM) | 8 (≈ 18.5 µM) | 0.063 (≈ 0.145 µM) | 0.063 (≈ 0.145 µM) | 0.125 (≈ 0.288 µM) | 0.063 (≈ 0.145 µM) | 0.008 (≈ 0.0185 µM) | 0.004 (≈ 0.00923 µM) | 8 (≈ 18.5 µM) | 0.016 (≈ 0.0369 µM) | 0.063 (≈ 0.145 µM) | 0.063 (≈ 0.145 µM) | 0.125 (≈ 0.288 µM) | 8 (≈ 18.5 µM) |  |  |  |  |
| C[C@@H](O)[C@H]1C(=O)N2C(C(=O)O)=C(SC3CN(S(=O)(=O)NCC(N)=O)C3)[C@H](C)[C@H]12 [Compound 10] |  | 5 (≈ 11.5 µM) | 0.032 (≈ 0.0736 µM) | 8 (≈ 18.4 µM) | 0.016 (≈ 0.0368 µM) | 0.063 (≈ 0.145 µM) | 0.125 (≈ 0.288 µM) | 0.063 (≈ 0.145 µM) | 0.008 (≈ 0.0184 µM) | 0.008 (≈ 0.0184 µM) | 16 (≈ 36.8 µM) | 0.008 (≈ 0.0184 µM) | 0.063 (≈ 0.145 µM) | 0.063 (≈ 0.145 µM) | 0.125 (≈ 0.288 µM) | 8 (≈ 18.4 µM) | 0.063 (≈ 0.145 µM) |  |  |  |
| C[C@@H](O)[C@H]1C(=O)N2C(C(=O)O)=C(S[C@@H]3CN[C@H](C(=O)Nc4cccc(C(=O)O)c4)C3)[C@H](C)[C@H]12 [ertapenem, Ertapenem, reference compound] |  | 2 (≈ 4.21 µM) | 0.25 (≈ 0.526 µM) | > 64 | 0.25 (≈ 0.526 µM) | 0.5 (≈ 1.05 µM) |  | 1 (≈ 2.1 µM) | 0.063 (≈ 0.132 µM) | 0.032 (≈ 0.0673 µM) | 64 (≈ 135 µM) | 0.25 (≈ 0.526 µM) | 0.5 (≈ 1.05 µM) | 0.5 (≈ 1.05 µM) | 1 (≈ 2.1 µM) | 32 (≈ 67.3 µM) | 1 (≈ 2.1 µM) | 2 (≈ 4.21 µM) |  |  |
| C[C@@H](O)[C@H]1C(=O)N2C(C(=O)[O-])=C(SC3CN(S(=O)(=O)NCC(O)CN)C3)[C@H](C)[C@H]12.[Na+] (stereo partly shown) [sodium salt of compound 9] |  | 0.5 | 0.032 | 16 | 0.032 | 0.063 |  | 0.063 | 0.008 | 0.008 | 8 | 0.016 | 0.032 |  |  | 16 | 0.63 | 0.063 | 0.125 | 0.125 |

— US20110046107A1, “SULFONYL-SUBSTITUTED CARBAPENEM COMPOUNDS” (priority 2007, published 2011)
